Source: US8492310B2, “Herbicidal compositions containing benzoylpyrazole compounds” (priority 2008, dated 2013)
Where two headings read alike, the source gives them in different places.

Columns and labels:
[1] = system: velvetleaf (Abutilon theophrasti MEDIC.); assay: Foliar treatment pot test, visual growth inhibition rate, velvetleaf (AT); assay type: in vivo
Source text: (§1) When the herbicidal activity in a case where two active ingredients are combined, is larger than the simple sum of the respective herbicidal activities of the two active ingredients (the expected activity), it is called a synergistic effect. The activity expected by the combination of two active ingredients can be calculated as follows (Colby S. R., “Weed”, vol. 15, p. 20-22, 1967). E=α+β−(α×β÷100) where
(§2) Upland field soil was put into a 1/1,000,000 hectare pot, and seeds of various plants (barnyardgrass (Echinochloa crus-qalli L.), crabgrass (Digitaria sanguinalis L.), giant foxtail (Setaria faberi Herrm.), velvetleaf (Abutilon theophrasti MEDIC.) and prickly sida (Sida spinosa L.)) were sown. When the respective plants reached predetermined leaf stage, herbicidal compositions in predetermined amounts were diluted with water in an amount corresponding to 300 L/ha and applied for foliar treatment by a small sprayer.
(§3) Further, in accordance with the above Colby's formula, the growth inhibition rate (calculated value) was calculated. In Tables, with respect to the compound Q, Compound Nos. in Table 1 are described, and with respect to other herbicidal compounds, common names are described. Further, in Tables, barnyardgrass is represented by “EC”, crabgrass by “DS”, giant foxtail by “SF”, velvetleaf by “AT”, and prickly sida by “SS”.

[2] = system: crabgrass (Digitaria sanguinalis L.); assay: Foliar treatment pot test, visual growth inhibition rate, crabgrass (DS); assay type: in vivo
Source text: as §1, §2, §3

[3] = Digitaria sanguinalis, foliar, 552 h, 4.0-5.1 leaf stage, 23 DAT, read-out: Growth inhibition rate (%) of DS Measured value
[4] = Abutilon theophrasti, foliar, 552 h, 3.0-3.5 leaf stage, 23 DAT, read-out: Growth inhibition rate (%) of AT Measured value

## O=C(O)COc1ccc(Cl)cc1Cl [2,4-D]
[1]; 4.2-4.3 leaf stage, 20 DAT, 25 g/ha
  Growth inhibition rate (%) of AT Measured value: 45%

## CCc1cccc(CC)c1N(COC)C(=O)CCl [Alachlor, alachlor]
[2]; Digitaria sanguinalis, foliar, 504 h, 5.0-5.5 leaf stage, 21 DAT, read-out: Growth inhibition rate (%) of DS Measured value
  inhibition at 300 g/ha: 10%
[1]; Abutilon theophrasti, foliar, 504 h, 3.8-4.4 leaf stage, 21 DAT, read-out: Growth inhibition rate (%) of AT Measured value
  inhibition at 300 g/ha: 0%

## CC(C)N1C(=O)c2ccccc2NS1(=O)=O [Bentazone-sodium, bentazone-sodium]
[2]; Digitaria sanguinalis, foliar, 528 h, 4.0-5.0 leaf stage, 22 DAT, 200 g/ha, read-out: Growth inhibition rate (%) of DS Measured value
  inhibition at 200 g/ha: 0%
[2]; Digitaria sanguinalis, foliar, 552 h, 4.0-5.1 leaf stage, 23 DAT, 200 g/ha, read-out: Growth inhibition rate (%) of DS Measured value
  inhibition at 200 g/ha: 0%
[1]; Abutilon theophrasti, foliar, 528 h, 4.1-4.5 leaf stage, 22 DAT, 100 g/ha, read-out: Growth inhibition rate (%) of AT Measured value
  inhibition at 100 g/ha: 0%
[1]; Abutilon theophrasti, foliar, 552 h, 3.0-3.5 leaf stage, 23 DAT, 200 g/ha, read-out: Growth inhibition rate (%) of AT Measured value
  inhibition at 200 g/ha: 30%

## CCOC(=O)C(Cl)Cc1cc(-n2nc(C)n(C(F)F)c2=O)c(F)cc1Cl (stereo not shown) [Carfentrazone-ethyl, carfentrazone-ethyl]
[2]; Digitaria sanguinalis, foliar, 336 h, read-out: Growth inhibition rate (%) of DS Measured value, 4.0-5.0 leaf stage, 14 DAT, 15 g/ha
  inhibition at 15 g/ha: 5%
[2]; Digitaria sanguinalis, foliar, 384 h, read-out: Growth inhibition rate (%) of DS Measured value, 4.0-5.0 leaf stage, 16 DAT, 15 g/ha
  inhibition at 15 g/ha: 0%
[1]; Abutilon theophrasti, foliar, 336 h, read-out: Growth inhibition rate (%) of AT Measured value, 3.0-4.0 leaf stage, 14 DAT, 15 g/ha
  inhibition at 15 g/ha: 98%
[1]; Abutilon theophrasti, foliar, 504 h, read-out: Growth inhibition rate (%) of AT Measured value, 3.0-3.5 leaf stage, 21 DAT, 7 g/ha
  inhibition at 7 g/ha: 99%

## O=C(O)c1nc(Cl)ccc1Cl [Clopyralid, clopyralid]
[2]; Digitaria sanguinalis, foliar, 528 h, 4.0-5.0 leaf stage, 22 DAT, read-out: Growth inhibition rate (%) of DS Measured value
  inhibition at 300 g/ha: 0%
[2]; [3]
  inhibition at 300 g/ha: 0%
[1]; Abutilon theophrasti, foliar, 528 h, 4.1-4.5 leaf stage, 22 DAT, read-out: Growth inhibition rate (%) of AT Measured value
  inhibition at 300 g/ha: 40%
[1]; [4]
  inhibition at 300 g/ha: 35%

## CC(C)N(C(=O)COc1nnc(C(F)(F)F)s1)c1ccc(F)cc1 [Flufenacet]
[2]; Digitaria sanguinalis, foliar, 480 h, 5.0-5.2 leaf stage, 20 DAT, 200 g/ha, read-out: Growth inhibition rate (%) of DS Measured value
  inhibition at 200 g/ha: 0%
[2]; [3]
  inhibition at 300 g/ha: 0%
[1]; [4]
  inhibition at 300 g/ha: 0%

## CP(=O)(O)CCC(N)C(=O)O (stereo not shown) [Glufosinate-ammonium, glufosinate-ammonium]
[2]; Digitaria sanguinalis, foliar, 528 h, read-out: Growth inhibition rate (%) of DS Measured value, 4.0-5.0 leaf stage, 22 DAT, 100 g/ha
  inhibition at 100 g/ha: 0%
[1]; Abutilon theophrasti, foliar, 528 h, read-out: Growth inhibition rate (%) of AT Measured value, 4.1-4.5 leaf stage, 22 DAT, 200 g/ha
  inhibition at 200 g/ha: 10%
[1]; Abutilon theophrasti, foliar, 576 h, read-out: Growth inhibition rate (%) of AT Measured value, 3.2-4.1 leaf stage, 24 DAT, 200 g/ha
  inhibition at 200 g/ha: 30%

## N.O=C(O)CNCP(=O)(O)O [Glyphosate-ammonium, glyphosate-ammonium]
[2]; 5.0-5.5 leaf stage, 21 DAT, 100 g/ha
  Growth inhibition rate (%) of DS Measured value: 10%
[1]; 3.5-4.3 leaf stage, 14 DAT, 100 g/ha
  Growth inhibition rate (%) of AT Measured value: 30%
[1]; 3.5-4.3 leaf stage, 21 DAT, 200 g/ha
  Growth inhibition rate (%) of AT Measured value: 15%

## O=C(O)CNCP(=O)([O-])O.[K+] [Glyphosate-potassium]
[2]; 4.0-4.2 leaf stage, 20 DAT, 62.5 g/ha
  Growth inhibition rate (%) of DS Measured value: 0%
[2]; 4.0-4.2 leaf stage, 20 DAT, 125 g/ha
  Growth inhibition rate (%) of DS Measured value: 5%
[2]; 4.0-4.2 leaf stage, 20 DAT, 250 g/ha
  Growth inhibition rate (%) of DS Measured value: 20%

## COC(=O)c1c(Cl)nn(C)c1S(=O)(=O)NC(=O)Nc1nc(OC)cc(OC)n1 [Halosulfuron-methyl]
[2]; Digitaria sanguinalis, foliar, 336 h, read-out: Growth inhibition rate (%) of DS Measured value, 5.0-5.5 leaf stage, 14 DAT, 20 g/ha
  inhibition at 20 g/ha: 0%

## CON(C)C(=O)Nc1ccc(Cl)c(Cl)c1 [Linuron, linuron]
[2]; Digitaria sanguinalis, foliar, 336 h, 5.0-5.5 leaf stage, 14 DAT, 250 g/ha, read-out: Growth inhibition rate (%) of DS Measured value
  inhibition at 250 g/ha: 30%
[1]; Abutilon theophrasti, foliar, 336 h, 3.5-4.3 leaf stage, 14 DAT, read-out: Growth inhibition rate (%) of AT Measured value
  inhibition at 250 g/ha: 85%
[1]; Abutilon theophrasti, foliar, 576 h, 3.2-4.1 leaf stage, 24 DAT, read-out: Growth inhibition rate (%) of AT Measured value
  inhibition at 250 g/ha: 40%

## CCOC(=O)OC(C)Oc1c(C(=O)c2ccc(S(C)(=O)=O)c(OCCOC)c2C)cnn1C (stereo not shown) [NO. 2]
[1]; 4.0-4.3 leaf stage, 22 DAT, 3.75 g/ha
  Growth inhibition rate (%) of AT Measured value: 0%

## CCC(CC)Nc1c([N+](=O)[O-])cc(C)c(C)c1[N+](=O)[O-] [Pendimethalin, pendimethalin]
[2]; Digitaria sanguinalis, foliar, 480 h, 4.5-5.2 leaf stage, 20 DAT, 62.5 g/ha, read-out: Growth inhibition rate (%) of DS Measured value
  inhibition at 62.5 g/ha: 0%
[2]; Digitaria sanguinalis, foliar, 480 h, 4.5-5.2 leaf stage, 20 DAT, 125 g/ha, read-out: Growth inhibition rate (%) of DS Measured value
  inhibition at 125 g/ha: 0%
[2]; Digitaria sanguinalis, foliar, 480 h, 4.5-5.2 leaf stage, 20 DAT, 250 g/ha, read-out: Growth inhibition rate (%) of DS Measured value
  inhibition at 250 g/ha: 0%
[1]; Abutilon theophrasti, foliar, 312 h, 3.3-4.2 leaf stage, 13 DAT, 100 g/ha, read-out: Growth inhibition rate (%) of AT Measured value
  inhibition at 100 g/ha: 25%
[1]; Abutilon theophrasti, foliar, 480 h, 4.2-4.3 leaf stage, 20 DAT, 125 g/ha, read-out: Growth inhibition rate (%) of AT Measured value
  inhibition at 125 g/ha: 20%
[1]; Abutilon theophrasti, foliar, 480 h, 4.2-4.3 leaf stage, 20 DAT, read-out: Growth inhibition rate (%) of AT Measured value
  inhibition at 250 g/ha: 38%

## CCOCCN(C(=O)CCl)C(=C(C)C)c1ccccc1 [Pethoxamid, pethoxamid]
[2]; 3.6-3.8 leaf stage, 20 DAT, 100 g/ha
  Growth inhibition rate (%) of DS Measured value: 0%
[2]; 3.6-3.8 leaf stage, 20 DAT, 200 g/ha
  Growth inhibition rate (%) of DS Measured value: 0%
[2]; 3.6-3.8 leaf stage, 20 DAT, 400 g/ha
  Growth inhibition rate (%) of DS Measured value: 0%
[2]; 4.4-5.0 leaf stage, 13 DAT, 200 g/ha
  Growth inhibition rate (%) of DS Measured value: 0%
[1]; 3.3-4.2 leaf stage, 13 DAT, 200 g/ha
  Growth inhibition rate (%) of AT Measured value: 0%

## CCc1cc(C)cc(CC)c1-c1c(OC(=O)C(C)(C)C)n2n(c1=O)CCOCC2 [Pinoxaden]
[2]; Digitaria sanguinalis, foliar, 504 h, 4.0-5.1 leaf stage, 21 DAT, 25 g/ha, read-out: Growth inhibition rate (%) of DS Measured value
  inhibition at 25 g/ha: 70%
[2]; Digitaria sanguinalis, foliar, 504 h, 4.0-5.1 leaf stage, 21 DAT, 50 g/ha, read-out: Growth inhibition rate (%) of DS Measured value
  inhibition at 50 g/ha: 90%
[2]; Digitaria sanguinalis, foliar, 504 h, 4.0-5.1 leaf stage, 21 DAT, 100 g/ha, read-out: Growth inhibition rate (%) of DS Measured value
  inhibition at 100 g/ha: 70%
[1]; Abutilon theophrasti, foliar, 504 h, AT 4.0-4.3 leaf stage, 21 DAT, active ingredient 25 g/ha, read-out: Growth inhibition rate (%) of AT Measured value
  inhibition at 25 g/ha: 0%
[1]; Abutilon theophrasti, foliar, 504 h, AT 4.0-4.3 leaf stage, 21 DAT, active ingredient 50 g/ha, read-out: Growth inhibition rate (%) of AT Measured value
  inhibition at 50 g/ha: 0%
[1]; Abutilon theophrasti, foliar, 504 h, AT 4.0-4.3 leaf stage, 21 DAT, active ingredient 100 g/ha, read-out: Growth inhibition rate (%) of AT Measured value
  inhibition at 100 g/ha: 0%

## CS(=O)(=O)c1ccc(C(=O)C2C(=O)CCCC2=O)c(Cl)c1 [sulcotrione]
[1]; Abutilon theophrasti, foliar, 480 h, read-out: Growth inhibition rate (%) of AT Measured value, 4.0-4.2 leaf stage, 20 DAT, 25 g/ha
  inhibition at 25 g/ha: 40%
[1]; Abutilon theophrasti, foliar, 480 h, read-out: Growth inhibition rate (%) of AT Measured value, 4.0-4.2 leaf stage, 20 DAT, 50 g/ha
  inhibition at 50 g/ha: 60%
[1]; Abutilon theophrasti, foliar, 480 h, read-out: Growth inhibition rate (%) of AT Measured value, 4.0-4.2 leaf stage, 20 DAT, 100 g/ha
  inhibition at 100 g/ha: 95%
